From patent US4017611A, “Control of insects with 3-hydroxymethacrylic acid methyl ester dimethylthionophosphate” (priority 1970, dated 1977) come the findings set out here.

One data set relates to insects. As to the kind of experiment: Insecticidal action and effective life (general statement). The class given is in vivo.
Data set [1] in a line: Vapour pressure and diffusion (general statement).
The mark [2] stands for this setting: compared to compounds of French Pat. No. 1530955, PHOSDRIN or DDVP.

Regarding `COC(=O)C(C)=COP(=S)(OC)OC` [Compound I, 3-hydroxymethacrylic acid methyl ester dimethylthionophosphate], the insecticidal action entry in the data set on insects (setting [2]) was “stronger insecticidal action”. For the same compound, in the data set with insects (in vivo), the effective life entry was “more than 4 months”. For the same compound, the “diffusion into the gaps between stored foodstuffs” value in data set [1] is listed as “diffuses easily”. Also, in data set [1] (setting [2]), the vapour pressure result was “increased vapour pressure”.
